The values that follow come from patent publication US20240109843A1, “BENZALDEHYDE COMPOUNDS WITH DIRECT POLYMER DESTABILIZING EFFECTS TO TREAT SICKLE CELL DISEASE” (VIRGINIA COMMONWEALTH UNIVERSITY, priority 2018, published 2024).

For assay [1], the target named is T1, Hb (Homo sapiens, UniProt P69905). Put plainly: Affinity (KD) for Hb. Type of assay: binding.
The test system of assay [2] is RBCs from donors with homozygous SCD. The assay can be described thus: Oxygen-independent sickle inhibition in SS blood suspensions under anoxia (100% nitrogen). Type of assay: cell-based, human. The settings on record: Homo sapiens, 2 mM, 4 biological replicates, read-out: % Sickling Inhibition (Anoxia). A digest of the protocol: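 After room-air re-oxygenation for 15 min to reverse sickling, SS blood suspensions were held under 100% nitrogen for 1 h (screening) or up to 2.5 h (time course), with aliquots fixed at set intervals. Sickled versus non-sickled cells were counted by bright-field microscopy to calculate sickle inhibition.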

Assay [3] addresses T1, Hb. Put plainly: Oxygen equilibrium curve (OEC) studies with normal whole blood. Type of assay: cell-based. Also noted: Hemoglobin modification, studies using non-sickling AA blood; from tissue; host or cells: non-sickling (AA) human blood, red blood cells. The note with it: normal whole blood, 0.5, 1, 2 mM. A digest of the protocol:
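Whole human blood at 30% hematocrit incubated with compound at 0.5, 1.0 or 2.0 mM (DMSO) or without. After equilibration, pO2 and sO2 measured by automated blood gas analyser across saturation levels, and the oxygen equilibrium curve fitted by nonlinear regression.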

Another assay concerns the target T2, intracellular Hb (Mus musculus, UniProt P01942).
T2 construct: from tissue; host or cells: blood (red cell lysates) of dosed C57BL/6 mice
The assay can be described thus: In vivo modification of intracellular Hb in wild-type mice. Also on record: species or system C57BL/6 mice. The method in brief: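 C57BL/6 mice got a single 150 mg/kg dose, i.p. in 30% PEG300, or i.p. and oral in an alternative excipient. Blood was taken before dosing and at 1, 3 and 6 h (or 1, 3 or 5 h), then lysed. Lysates were analysed by cation-exchange HPLC for Hb adducts and by oxygen equilibrium for the p50 shift.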

The next assay has as its system sickle red blood cells. Put plainly: Antisickling study with human sickle blood under 2.5% oxygen. Type of assay: cell-based. The settings on record: Homo sapiens, Erythrocyte, sickle RBCs, 2.5% oxygen, read-out: sickling inhibition. A digest of the protocol: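 Homozygous SCD blood at 20% hematocrit preincubated with compound (0.5, 1, 2 mM) under air for 1 h at 37 °C, then under 2.5% O2 for 1 h. Cells fixed in 2% glutaraldehyde without air exposure; sickling scored by bright-field morphology at 40×.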

The target in the next assay is T3, sickle Hb (Homo sapiens, UniProt P69905).
T3 construct: Blood suspensions from subjects with homozygous SCD; from tissue; host or cells: blood suspensions (20% hematocrit) from donors with homozygous SCD; lysates of the treated red cells
T3 sequence (P69905 2-142 limits assumed): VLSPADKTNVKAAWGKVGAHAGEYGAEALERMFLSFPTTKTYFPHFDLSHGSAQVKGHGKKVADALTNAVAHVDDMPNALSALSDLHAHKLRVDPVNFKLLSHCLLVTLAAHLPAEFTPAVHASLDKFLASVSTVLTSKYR
Put plainly: Oxygen equilibrium (P50 shift) of lysates from treated sickle blood. Type of assay: cell-based. The note with it: 0.5, 1 and 2 mM, SS blood. The method, then: Blood suspensions from subjects with homozygous SCD (resuspended in Hemox™ buffer to a final hematocrit 20%) were incubated under air in the absence or presence of the compounds (0.5 mM, 1 mM and 2 mM) at 37° C. for 1 h to ensure that binding had attained equilibrium. The suspensions were then incubated under hypoxic conditions (2.5% oxygen/97.5% nitrogen) at 37° C. for 1 h. Aliquot samples were fixed with 2% glutaraldehyde solution without exposure to air, and then subjected to microscopic morphological analysis of bright field images (at 40× magnification) of single layer cells on an Olympus BX40 microscope fitted with an Infinity Lite B camera (Olympus), and the coupled Image Capture software. The residual samples were washed in phosphate-buffer saline, and hemolyzed in hypotonic lysis buffer for subsequent Hb-modification and oxygen equilibrium analyses.
For oxygen equilibrium studies, approximately 100 μL aliquot samples from the above clarified lysate were added to 4 mL of 0.1M potassium phosphate buffer, pH 7.0, in cuvettes and subjected to hemoximetry analysis using a Hemox™ Analyzer (TCS Scientific Corp.) to assess P50 shifts. Degree of P50 shift (ΔP50) was expressed as percentage fractions of control DMSO-treated samples.

Several values for one entry are separate records, joined by “and”; a condition that tells them apart may be missing. Identical values can stand only once. A value given as a limit tells only on which side of the number the result lay.

T2 sequence (P01942 2-142 limits assumed): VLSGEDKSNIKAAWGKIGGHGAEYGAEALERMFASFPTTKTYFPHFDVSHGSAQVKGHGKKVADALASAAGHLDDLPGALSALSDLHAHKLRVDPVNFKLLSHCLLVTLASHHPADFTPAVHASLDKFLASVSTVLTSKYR
T2 sequence (P02088 2-147 partner limits assumed): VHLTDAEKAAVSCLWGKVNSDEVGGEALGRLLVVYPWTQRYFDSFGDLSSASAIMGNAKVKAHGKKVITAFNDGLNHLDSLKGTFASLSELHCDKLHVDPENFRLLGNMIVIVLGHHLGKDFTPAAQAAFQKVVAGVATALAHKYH
T1 sequence (P69905 2-142 limits assumed): as the sequence (P69905 2-142 limits assumed) above
T1 sequence (P68871 2-147 partner limits assumed): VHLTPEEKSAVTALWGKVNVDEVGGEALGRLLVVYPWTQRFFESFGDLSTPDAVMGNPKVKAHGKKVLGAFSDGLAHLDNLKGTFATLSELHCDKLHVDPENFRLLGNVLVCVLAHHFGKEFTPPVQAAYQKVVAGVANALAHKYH

On to `COC(=O)c1ccc(COc2cccc(O)c2C=O)cn1` [PP14, Methyl 5-((2-formyl-3-hydroxyphenoxy)methyl)picolinate], for which the affinity on Hb [1], expressed as Kd, was 150 µM. In assay [2], the inhibition (as a rule, the change of the read-out against control, counted positive when it falls) at 2000 µM amounted to 80.5 ± 17.4%. Further, the “effect on Hb oxygen binding property (OEC)” value at Hb [3] was “most significant activities”. Moreover, the Hb modification at intracellular Hb (IP 150 mg/kg, 30% PEG300, 1 hr) stood at 7%; at intracellular Hb (IP 150 mg/kg, 30% PEG300, 3 hr), 13%; on intracellular Hb (IP 150 mg/kg, Catalent excipient, 1 hr), 21.8±1.6%; at intracellular Hb (IP 150 mg/kg, Catalent excipient, 3 hr) it was 37.7±5.0%; on intracellular Hb (IP 150 mg/kg, Catalent excipient, 5 hr) it was 51.1±4.3%. The “modified Hb” value was 19.1±0.6% and 19% at intracellular Hb (IP 150 mg/kg, 30% PEG300, 6 h, 150 mg/kg); 14.5±3.7% on intracellular Hb (oral gavage 150 mg/kg, Catalent excipient, 1 hr); 16.3±2.2% on intracellular Hb (oral gavage 150 mg/kg, Catalent excipient, 3 hr); 17.1±4.4% at intracellular Hb (oral gavage 150 mg/kg, Catalent excipient, 5 hr). The inhibition at 500 µM in the assay with sickle red blood cells (0.5 mM) was > 35%. The inhibition at 1000 µM in the assay with sickle red blood cells (1 mM) was > 70%. At sickle Hb, the “increase of Hb affinity for oxygen in sickle blood (in words)” value is “only marginally increasing Hb affinity for oxygen”.
